From patent US5648365A, “Diarylalkyl piperidines useful as multi-drug resistant tumor agents” (Merrell Pharmaceuticals Inc., priority 1996, dated 1997) come the findings set out here.

SMILES strings stand for the structures.

In test [1] the test system is MDR tumor cells. In words: MDR activity: synergy with vinblastine, colorimetric MTT assay. The format is cell-based. To be noted: for EC50: concentration required to lower the IC50 of vinblastine by 50% when both added together, 72 hr, MTT, read-out: MDR Activity ED50; for Activity Index: ratio of toxicity (IC50) and MDR activity (ED50), 4320 min. The protocol:
(§1) A colorimetric assay is employed to determine the synergy between test compounds of the invention and vinblastine or adriamycin against the growth of MDR tumor cells. The assay is based on the ability of live tumor cells to reduce a tetrazoline compound, MTT (3-(4,5-dimethyl)[…])-2,5-diphenyl tetrazolium bromide, to a blue formazan product. Both the test compound and cytotoxic drug (vinblastine or adriamycin) were added to the cells growing in wells of a 96-well plate at different combinations of concentration. The cells were allowed to grow for 72 hr and, at the end of incubation, stained with MTT for 3 hr. The blue formazan product which developed, was dissolved with DMSO and the color intensity was recorded in a spectrophotometer. Based on the data, an isobologram analysis was performed. MDR activity (ED50 : μM) represents the concentration of the compound required to lower the IC50 value of vinblastine by 50% when both the compounds were added to the medium together. Cellular toxicity (IC50 : μM) represents concentration of the compound that inhibit cell growth by 50%. Activity index is the ratio of toxicity and MDR activity.

Test [2] relates to MDR tumor cells. In words: Cellular toxicity: inhibition of cell growth, colorimetric MTT assay. The format is cell-based. To be noted: concentration that inhibits cell growth by 50%, 72 hr. The protocol:
as §1
In general terms: Tetrazolium dyes change colour on reduction, which living cells bring about.

What is called IC50 is the concentration that gives 50% inhibition.

Take `COc1cc(CC(=O)N2CCCCC2CC(c2ccccc2)c2ccccc2)cc(OC)c1OC` (stereo not drawn) [Example 1, 1-[2-(2,2-Diphenyl-Ethyl)-Piperidin-1-yl]-2-(3,4,5-Trimethoxy-Phenyl)-Ethanone]: in the test on MDR tumor cells [1], the EC50 stood at 0.31 µM and the “Activity Index” value was 109.0. Moreover, in the test on MDR tumor cells [2], the IC50 was 33.8 µM.
As to `O=C(Cc1ccc2c(c1)OCO2)N1CCCCC1CC(c1ccccc1)c1ccccc1` (stereo not drawn) [Example 3, 2-Benzo[1,3]Dioxol-5-yl-1-[2-(2,2-Diphenylethyl)-Piperidin-1-yl]-Ethanone], in the test on MDR tumor cells [1], the EC50 turned out to be 1.2 µM and the “Activity Index” value stood at 32.5. Besides, the IC50 with MDR tumor cells [2] worked out at 39 µM.
Take `COc1ccc(CCC(=O)N2CCCCC2CC(c2ccccc2)c2ccccc2)cc1OC` (stereo not drawn) [Example 6, 3-(3,4-Dimethoxy-Phenyl)-1-[2-(2,2-Diphenylethyl)-Piperidin-1-yl]-Propan-1-one]: in the test on MDR tumor cells [1], the EC50 came out at 0.46 µM and the “Activity Index” value is listed as 47.0. In the test on MDR tumor cells [2], the IC50 stood at 21.6 µM.
For `COc1cc(CC(=O)N2CCCCC2C(c2ccccc2)c2ccccc2)cc(OC)c1OC` (stereo not drawn) [Example 9], in the test with MDR tumor cells [1], the EC50 stood at 0.7 µM and the “Activity Index” value is listed as 43.5. Moreover, in the test on MDR tumor cells [2], the IC50 was found to be 30.3 µM.
As to `COc1ccccc1CC(=O)N1CCCCC1CC(c1ccccc1)c1ccccc1` (stereo not drawn) [Example 2, 1-[2-(2,2-Diphenyl-Ethyl)-Piperidin-1-yl]-2(2-Methoxy-Phenyl)-Ethanone], in the test with MDR tumor cells [1], the EC50 amounted to 1.16 µM and the “Activity Index” value was 32.0. Further, in the test on MDR tumor cells [2], the IC50 came to 37.5 µM.
